Measurements as given in patent US20210177892A1, “PREVENTION AND TREATMENT OF INFECTIOUS DISEASE USING LOW CONCENTRATION HYPOCHLOROUS ACID SOLUTIONS” (Wonder Spray, LLC, priority 2019, published 2021).

Key:
[1] = test system: Streptococcus pneumoniae ATCC 49619; test: Kill Time Study, Streptococcus pneumoniae; format: cell-based; settings: FIG. 3
Description: (§1) For example, FIG. 3 and FIG. 4 illustrate tables of the effect of a solution of HOCl on Streptococcus pneumoniae and Streptococcus pyogenes, respectively. The organisms in this test were prepared by inoculating the surface of about 5% Sheep blood agar plates, incubated at about 30 to 35° C. for 18 to 24 hours. Following the incubation period, the plates were washed with sterile Serological Saline Solution to harvest the microorganisms used and dilutions with Saline were made, plated on blood agar and incubated at 30 to 35° C. for 24-48 hours to determine the concentration. The inoculum level was then adjusted to […] for use as a stock suspension. Stock suspensions were well mixed and homogenized at each inoculation interval.
(§2) Positive controls were performed at initiation and completion by spread plating to enumerate inoculum levels and verify culture purity during testing and Negative controls were performed to establish sterility of media, reagents, and materials used at initiation. Neutralizer Suitability using Modified Letheen Broth (MLB) was performed concurrently with Kill Time testing to confirm the recovery of <100 CFU of the test organism in the subculture media in the presence of product. Duplicate 10 ml containers for each treated specimen or material concentration was prepared, equilibrated to 25±2° C., and 0.1 ml of inoculum is added to each container to achieve a final concentration of 10^6 cfu/ml.
(§3) Serial dilutions from each replicate were made at intervals of 15 second, 30 second, 1 minute and 5 minutes using 1 ml of the inoculated test product into 9 ml MLB from 1:10 to 1:1000000. Subsequently, 1 ml from each dilution was spread plated on 5% Sheep Blood agar plate in duplicate, incubated at 30 to 35° C. for 48 hours. After the incubation period, all plates were counted to determine the number of microorganisms, results are averaged and reported as log 10 reductions.

[2] = test system: Streptococcus pyogenes ATCC 49399; test: Kill Time Study, Streptococcus pyogenes; format: cell-based; settings: FIG. 4
Description: as §1, §2, §3

E. coli = settings: 50 mM (2.6 ppm), within 5 minutes; cited from earlier work
f2 RNA = settings: cited from earlier work
[3] = inhalation; cited from earlier work

What does the source list for `OCl` [HOCl, Hypochlorous acid]?
time in which bacteria that cause pneumonia are effectively killed [1]: less than 15 seconds; cfu/ml of Streptococcus pneumoniae after the HOCl solution was applied ([1]; after fifteen seconds): less than 10 cfu/ml; log 10 reduction for Streptococcus pneumoniae ([1]; after fifteen seconds): 6.057 log 10; percent reduction for Streptococcus pneumoniae ([1]; after fifteen seconds): 99.99%; time in which bacteria that cause strep throat are effectively killed [2]: less than 15 seconds; cfu/ml of Streptococcus pyogenes after the HOCl solution was applied ([2]; after fifteen seconds): less than 10 cfu/ml; log 10 reduction for Streptococcus pyogenes ([2]; after fifteen seconds): 6.086 log 10; percent reduction for Streptococcus pyogenes ([2]; after fifteen seconds): 99.99%; inhibition of DNA synthesis in E. coli (E. coli): ninety-six; inhibition of the growth of E. coli (E. coli): completely inhibited the growth; inactivation of naked f2 RNA compared with RNA in intact phage (f2 RNA): inactivated naked f2 RNA at the same rate as RNA in intact phage; adverse effects of inhaling the aerosolized form [3]: no adverse effects
